Measured values taken from ChEMBL document CHEMBL1782020, “Novel 7-phenylsulfanyl-1,2,3,4,10,10a-hexahydro-pyrazino[1,2-a]indoles as dual serotonin 5-HT2C and 5-HT6 receptor ligands” (Bioorg Med Chem Lett, 2010).

Columns and labels:
[1] = biological target: T1, 5-hydroxytryptamine receptor 2C (Homo sapiens, UniProt P28335); experiment: Displacement of [3H]mesulergine from human 5HT2C receptor in human tsA201 cells; assay type: cell-based
T1 sequence (P28335 whole entry): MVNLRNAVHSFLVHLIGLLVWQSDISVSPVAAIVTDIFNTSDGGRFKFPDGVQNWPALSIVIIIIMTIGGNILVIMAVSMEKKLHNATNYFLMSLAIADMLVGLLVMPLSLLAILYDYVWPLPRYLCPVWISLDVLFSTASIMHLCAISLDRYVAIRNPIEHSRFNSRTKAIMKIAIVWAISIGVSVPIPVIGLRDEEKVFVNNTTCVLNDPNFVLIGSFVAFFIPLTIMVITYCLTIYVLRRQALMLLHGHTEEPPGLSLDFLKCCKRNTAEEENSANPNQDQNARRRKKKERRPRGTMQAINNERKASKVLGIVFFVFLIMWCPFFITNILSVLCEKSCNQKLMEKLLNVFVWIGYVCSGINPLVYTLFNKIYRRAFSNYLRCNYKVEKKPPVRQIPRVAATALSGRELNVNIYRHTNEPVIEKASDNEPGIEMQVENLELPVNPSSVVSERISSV

[2] = biological target: 5-hydroxytryptamine receptor 6 (Homo sapiens, UniProt P50406); experiment: Displacement of [3H]5-LSD from human 5HT6 receptor expressed in human HeLa cells; assay type: cell-based
5-hydroxytryptamine receptor 6, sequence (P50406 whole entry): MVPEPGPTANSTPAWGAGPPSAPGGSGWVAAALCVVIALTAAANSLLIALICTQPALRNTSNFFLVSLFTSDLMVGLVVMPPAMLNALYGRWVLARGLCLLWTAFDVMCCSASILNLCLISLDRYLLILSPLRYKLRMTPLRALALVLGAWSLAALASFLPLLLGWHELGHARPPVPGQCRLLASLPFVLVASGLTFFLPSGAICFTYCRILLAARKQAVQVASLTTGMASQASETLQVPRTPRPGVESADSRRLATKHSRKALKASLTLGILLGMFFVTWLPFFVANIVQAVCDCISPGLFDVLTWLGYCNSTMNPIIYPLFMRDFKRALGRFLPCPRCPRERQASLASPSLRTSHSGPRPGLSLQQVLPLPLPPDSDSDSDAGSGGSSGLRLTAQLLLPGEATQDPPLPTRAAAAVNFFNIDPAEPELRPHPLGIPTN

Compound	Ki [1]	Ki [2]
FC(F)(F)c1cccc(Sc2ccc3c(c2)N2CCNCC2C3)c1 (stereo unspecified)	180 nM	300 nM
COc1ccccc1Sc1ccc2c(c1)N1CCNCC1C2 (stereo unspecified)	41 nM	23 nM
COc1cccc(Sc2ccc3c(c2)N2CCNCC2C3)c1 (stereo unspecified)	120 nM	110 nM
FC(F)(F)c1ccccc1Sc1ccc2c(c1)N1CCNCC1C2 (stereo unspecified)	83 nM	330 nM
Cc1ccc(Sc2ccc3c(c2)N2CCNCC2C3)cc1 (stereo unspecified)	68 nM	110 nM
Fc1ccccc1Sc1ccc2c(c1)N1CCNCC1C2 (stereo unspecified)	49 nM	150 nM
Cc1ccccc1Sc1ccc2c(c1)N1CCNCC1C2 (stereo unspecified)	49 nM	81 nM
COc1ccc(Sc2cccc(N3CCNCC3)c2)cc1	74 nM	–
O=C1NCCN1CCN1CCC(c2cn(-c3ccc(F)cc3)c3ccc(Cl)cc23)CC1 [SERTINDOLE]	–	5 nM
FC(F)(F)c1ccc(Sc2ccc3c(c2)N2CCNCC2C3)cc1 (stereo unspecified)	280 nM	760 nM
COc1ccc(Sc2ccc3c(c2)N2CCNCC2C3)cc1 (stereo unspecified)	57 nM	78 nM
NCCc1cccc(Sc2ccccc2)c1	150 nM	–
Cc1cccc(Sc2ccc3c(c2)N2CCNCC2C3)c1 (stereo unspecified)	77 nM	50 nM
c1ccc(Sc2cccc(N3CCNCC3)c2)cc1	91 nM	–
Fc1ccc(Sc2ccc3c(c2)N2CCNCC2C3)cc1 (stereo unspecified)	61 nM	160 nM
